Assay results from patent US6083481A, “Thrombus imaging agents” (Diatide, Inc., priority 1998, dated 2000).

Test system: human platelets in platelet-rich plasma
Assay: Platelet aggregation inhibition assay (ADP-induced, platelet-rich plasma)
Type: cell-based
Conditions: fresh human platelet-rich plasma, aggregation induced by ADP 10 to 15 micromolar; read-out: IC50 (concentration of reagent that inhibits by 50% the aggregation of human platelets)
Protocol: Platelet aggregation studies were performed essentially as described by Zucker (1989, Methods in Enzymol. 169: 117-133). Briefly, platelet aggregation was assayed with or without putative platelet aggregation inhibitory compounds using fresh human platelet-rich plasma comprising 300,000 platelets per microlitre. Platelet aggregation was induced by the addition of a solution of adenosine diphosphate to a final concentration of 10 to 15 micromolar, and the extent of platelet aggregation monitored using a Bio/Data aggregometer (Bio/Data Corp., Horsham. Pa.). The concentrations of platelet aggregation inhibitory compounds used were varied from 0.1 to 500 μg/mL. The concentration of inhibitor that reduced the extent of platelet aggregation by 50% (defined as the IC50) was determined from plots of inhibitor concentration versus extent of platelet aggregation. An inhibition curve for peptide RGDS was determined for each batch of platelets tested as a positive control.
*concentration of reagent that inhibits by 50% the aggregation of human
platelets in plateletrich plasma induced to aggregate by the addition of
adenosine diphosphate (ADP).

IC50: 15 µM
Substance: GRDGVRGDFCAcm GCAcm amide [Peptide P98]
